# Assay results from patent US20090137527A1, “Compositions and methods for modulating immune function” (Resolvyx Pharmaceuticals, Inc., priority 2007, published 2009).
# Entries after “also recorded” stand apart in the source; their conditions may differ. Where two headings read alike, the source gives them in different places.
# Columns and labels:
# [1] = system: lymph node cells from collagen-induced arthritis rats; assay: Ex vivo cytokine production in lymph node cells from CIA rats treated with compound; set-up: species or system rat
# Description: (§1) Female Lewis rats were anesthetized with 3-5% isoflurane and arthritis was induced by intradermal injection of 0.3 mL (100 μL at three different sites) of an emulsion […] 1.5 mg/mL of type II bovine collagen, CII (Elastin Products Inc., Cat# CM276), in incomplete Freund's adjuvant (IFA) at the base of the tail on day 0 and 6. Control rats were injected with an equal amount of IFA only.
# (§2) were measured under two different treatment regimens. In the first (prophylactic) treatment regimen, Compound X was administered i.v., twice daily, at 0.3 mg/kg from day 0 to day 6 or 10. For ex vivo studies, animals were euthanized on day 6 after the last injection and their inguinal lymph nodes were harvested. […] For ex vivo studies, animals were euthanized on day 16 and inguinal lymph nodes were harvested. Venous blood samples were collected during the course of treatment. For CD3 activation, 96-well flat bottom plates were coated with anti-CD3 mAb (eBioscience, clone G4.18) 1 μg/mL. Plates were stored overnight at 4° C., and were subsequently rinsed with PBS once before use. Bovine Type II collagen for tissue culture was purchased from Chondrex (Cat# 2022) and was reconstituted according to the manufacturer's instructions. All data were processed and analyzed by t-test using GraphPad Prism software.
# Treatment regimen one was used (n=3). Animals were treated with Compound X from day 0 to day 6, were sacrificed on day 6, and freshly harvested lymph nodes were pressed through a nylon strainer (BD Falcon Cat# 352340) to obtain a single cell suspension. Cells were washed and resuspended in RPMI 1640/10% FCS at 4×10^6/mL. In U-bottom 96-well plates, 100 μL or 4×10^5 cells and 100 μL of collagen at 25 or 50 μg/mL final concentrations were added. Plates were incubated in a 37° C., 5% CO2 incubator overnight. Supernatants were harvested, and rat cytokines were measured with Bioplex (BioRad).
# In FIG. 2A, animals were given compound X from Day 0 to Day 6 (treatment regimen one). In FIG. 2B, animals were given compound X from day 8 to day 16 (treatment regimen two).
# In FIG. 3A, animals were given compound X from Day 0 to Day 6 (treatment regimen one). In FIG. 3B, animals were given compound X from day 8 to day 16 (treatment regimen two). Freshly harvested lymph nodes were pressed through a nylon strainer (BD Falcon Cat# 352340) to obtain a single cell suspension. Cells were washed and resuspended in RPMI 1640/10% FCS at 4×10^6/mL. To anti-CD3 coated plates were added 4×10^5 cells per well and 100 μL RPMI 1640/10% FCS media. The plates were incubated in a 37° C., 5% CO2 incubator for three days (FIG. 3A) or overnight (FIG. 3B). Rat IL-17 was measured with a kit from Millipore (Cat# RCYTO-18K-01) following the manufacturer's instructions.
# [2] = system: whole blood from CIA rats; assay: Ex vivo LPS-stimulated cytokines in whole blood from CIA rats; set-up: species or system rat; conditions: 0.3 mg/kg i.v. twice daily (day 20 sample: 1 mg/kg orally twice daily) from day 8; 10 ng/mL LPS, 4 hours
# Description: as §1
# as §2, with “Bovine Type II collagen for tissue culture was purchased from Chondrex (Cat# 2022) and was reconstituted according to the manufacturer's instructions.” left out
# To measure the effect of Compound X on blood cells, rat whole blood samples were taken on day 8, 10, 13, 16 and 20 (n=3-6). […] After 4 hours in culture, supernatants were collected and cytokine levels measured by Bioplex.
# [3] = system: CD3-stimulated mouse splenocytes; assay: Ex vivo anti-CD3 stimulated cytokine production of mouse spleen cells after in vivo dosing; conditions: for inhibition at 0.03 mg/kg: Mus musculus, Splenocyte, iv, single i.v. 0.03 mg/kg, 30 min before harvest, vs vehicle
# Description: BALB/c female mice (n=5), 6-8 weeks old, were given either i.v. injection of Compound X or vehicle once a day for 5 days or a single i.v. injection of Compound X or vehicle. Thirty minutes after the last injection, spleens were removed under sterile conditions, and a single cell suspension was made by pressing through a nylon strainer (BD Falcon Cat# 352340). Cells were spun at 1500 rpm for 10 minutes, and the liquid was aspirated. RBC was lysed by adding 3 mL of ACK solution (Lonza Cat# 10-458E) for 5 minutes. The tube was filled with RPMI media and spun. Cells were resuspended in RPMI/10% FCS. To plates pre-coated with anti-CD3 (per the procedure described below) were added 4×10^5 cells per well. Supernatants were harvested after 18 hours of culture. Cytokine levels were measured by Bioplex (Biorad), according to manufacturer's instructions.
# For CD3 stimulation, anti-mouse CD3 mAb (BD Pharmingen clone 145-2C11) was used at 0.2 μg/mL in PBS to coat flat bottom 96-well plate at 4° C. overnight. Plates were rinsed twice with PBS before use.
# To measure this effect, mice were given daily i.v. injections of 0.3 mg/kg of Compound X for five days. Spleen cells were then harvested and stimulated with anti-CD3 antibody in vitro overnight.
# Mice were given a single i.v. injection of 0.03 mg/kg Compound X 30 minutes before spleen cells were harvested. T cells were isolated by magnetic beads, and the purity of T cells was >95% as measured by flow cytometry. Spleen cells or purified T cells were stimulated with 0.2 μg/mL anti-CD3 overnight, and cytokine levels were measured by Bioplex.
# The ability of in vivo treatment with Compound X to inhibit anti-CD3 stimulated cytokine production was measured by treating mice (n=5) with a single i.v. injection of 0.03 mg/kg of Compound X thirty minutes before spleens were harvested. Spleen cells were stimulated with anti-CD3 mAb overnight, and cytokine levels were measured by Bioplex. The resulting percent inhibition of cytokine production by total spleen cells as compared with vehicle treated animals is shown in Table 2. These studies indicate that Compound X, when dosed to naïve animals, inhibited ex vivo CD3-stimulated cytokine production in splenocytes by approximately 35-60%.
# [4] = two treatment regimens: day 0 to day 6, or day 8 to day 16, 0.3 mg/kg i.v. twice daily
smiles,measurement,setting,value
CC[C@@H](O)/C=C/C=C\C[C@@H](O)/C=C/C=C/C=C\[C@@H](O)CCCC(=O)O [Compound X],ex vivo IFN-γ and TNFα production in lymph node cells,"[1]; 0.3 mg/kg i.v. twice daily day 0 to day 6, collagen 25 or 50 μg/mL overnight",inhibited
same,"reduction of collagen- or CD3-induced IFNγ, TNFα and IL-17 secretion from draining lymph node cells",[1]; treated animals compared to controls,60-90%
same,ex vivo anti-CD3 mAb-induced IL-17 production in lymph node cells,[1]; [4],inhibited
same,ex vivo collagen-induced IFN-γ production in lymph node cells,[1]; [4],inhibited
same,ex vivo LPS-stimulated cytokine production in whole blood,[2],inhibited; also recorded: significantly lower
same,inhibition at 0.03 mg/kg,"[3]; anti-CD3 overnight, read-out: % Inhibition of IL-6 production by total spleen cells",55.2%
same,inhibition at 0.03 mg/kg,"[3]; anti-CD3 overnight, read-out: % Inhibition of IL-13 production by total spleen cells",68.3%
same,inhibition at 0.03 mg/kg,"[3]; anti-CD3 overnight, read-out: % Inhibition of INFγ production by total spleen cells",78.5%
same,inhibition at 0.03 mg/kg,"[3]; anti-CD3 overnight, read-out: % Inhibition of Il-2 production by total spleen cells",62.6%
same,inhibition at 0.03 mg/kg,"[3]; anti-CD3 overnight, read-out: % Inhibition of Il-4 production by total spleen cells",64.9%
same,inhibition at 0.03 mg/kg,"[3]; anti-CD3 overnight, read-out: % Inhibition of MIP1α production by total spleen cells",42.7%
same,inhibition at 0.03 mg/kg,"[3]; anti-CD3 overnight, read-out: % Inhibition of MIP1β production by total spleen cells",46.1%
same,inhibition at 0.03 mg/kg,"[3]; anti-CD3 overnight, read-out: % Inhibition of RANTES production by total spleen cells",37.2%
same,inhibition at 0.03 mg/kg,"[3]; anti-CD3 overnight, read-out: % Inhibition of TNFα production by total spleen cells",50.7%
same,cytokine release of CD3-stimulated mouse splenocytes,"[3]; daily i.v. 0.3 mg/kg for five days, anti-CD3 overnight",inhibits
same,inhibition of ex vivo CD3-stimulated cytokine production in splenocytes,"[3]; dosed to naïve animals, summary of studies",35-60%
same,"CD3-induced cytokine release, spleen cells or purified T cells","[3]; single i.v. 0.03 mg/kg 30 minutes before harvest, 0.2 μg/mL anti-CD3 overnight",reduction
